Experimental data taken from patent publication US20120189579A1 (priority 2009, published 2012).

How the values were obtained:
[1] = biological target: T1, HCV NS5BΔ21/Gal4-DBD fusion protein (Hepatitis C virus genotype 1b, UniProt Q9WMX2); test: 3D-SCREEN assay (NS5B reporter gene assay in Huh-7 cells); format: cell-based, HCV genotype 1b
T1 construct: The protein was expressed with a 21 amino acid C-terminal deletion to remove transmembrane domain; expressed in transfected cells; host or cells: Huh-7 (transient transfection)
Experimental: (§1) Human Hepatoma Huh-7 cell line was maintained in DMEM/HAMF-12 supplemented with 10% SVF, 4 mM glutamine, […] Na pyruvate, 1% penistreptomycine. HCV replicon containing Huh-7 cell lines Huh-9.13 and Luc Neo ET (Reblikon) were maintained in DMEM supplemented with 10% SVF, 2 mM glutamine, and 1×NEAA, 100 U/ml penicillin, and 100 μg/ml streptomycine. Replicon cells were maintained in medium supplemented with 1 mg/ml G418 for replicon Huh-9.13 and 0.5 mg/ml for Luc Neo et replicon unless indicated otherwise. Huh-7 and HCV replicon cell lines were maintained at 37° C. and 5% CO2 in a humidified atmosphere. Cells were dissociated at sub confluence with trypsin EDTA 1×.
cDNA encoding HCV NS5B genotype 1b, was cloned in frame with Gal4-DNA Binding Domain. The protein was expressed with a 21 amino acid C-terminal deletion to remove transmembrane domain. Expression of NS5BΔ21/Gal4 DBD fusion protein was under control of SV40 early promoter. 3D-Sensor peptide was cloned in frame with VP16 activation domain. Expression of 3D-Sensor/VP16 AD fusion protein was under control of CMV promoter. Expression of the firefly luciferase reporter gene was inducible by the [Target protein/conformation sensitive peptide/VP16AD] complex.
It is a single-target, cell based assay. Briefly, expression of a reporter gene depends on the interaction of a short peptide, thereafter named 3D-Sensor, and native conformation of the target protein. Whenever the conformation of the target protein is modified, interaction between 3D-sensor and target protein is disrupted and reporter gene is not expressed anymore. Conformation modifiers are identified by loss of expression of reporter gene. NS5B 3D-Screen platform was generated in Huh-7 cell lines by transient transfection of three expression vectors encoding respectively • (i) HCV NS5BΔ21/Gal4-DBD fusion protein • (ii) the 3D-sensor peptide 14/VP16 fusion protein • (iii) the firefly luciferase reporter gene
Huh-7 cells were dissociated the day before transfection and seeded in T175 flasks at a density of 10^7 cells in 30 ml culture medium. Equimolar ratios of vectors were transfected in cell according to optimized jetPEI transfection protocol (PolyPlus Transfection, Illkirch, France) and 10 μg total DNA/10^6 cells. Transfection was performed for 2 hours at 37° C. and 5% CO2 in a humidified atmosphere. After two hours cells were dissociated and seeded in 96 wells plates at a density of 25,000 cells per well and 90 μl culture medium. 10 μl of compounds to be tested were added 2 hours after seeding. Final concentration of DMSO was 1%. Cells were incubated in the presence of compounds for 24 hours after which expression of firefly luciferase reporter gene was quantified. Briefly, culture medium was removed and cells were lysed by addition of 100 μl of lysis buffer containing 125 mM Tris Phosphate ph 7.8, 10 mM EDTA, 5 mM DTT, 50% glycerol and 5% Triton. Plates were vortexed 10 min at 1300 rpm. Cell lysat was transferred in OpaqueWhite Assay 96 well Flat Bottom plates. 100 μl of luciferin solution 1× were added to each well. Luciferin solution contained 40 mM Tris Phosphate ph 7.8, 0.2 mM EDTA, 67 mM DTT, 2.14 mM MgCl2, 5.4 mM MgSO4, 4.7×10^−4 M luciferin, 5.3×10^−4 M ATP and 2.7×10^−4 M Acetyl co enzyme A. Luminescence was immediately measured with Berthold Microlumat Plus LB 96V luminometer with an integration of 0.5 sec. Inhibition was calculated using the formula: % inhibition=(1−(read/average max))*100. Average max=signal in absence of compound

[2] = tested on: HCV replicon Luc Neo ET in Huh-7 cells; test: Replicon assay (Luc Neo ET replicon); format: cell-based; conditions: Hepatitis C virus, 72 hours with compound, firefly luciferase reporter, read-out: EC50—Replicon LucneoET
Experimental: as §1
Replicon Luc Neo ET is a bicistronic expression constructs (Lohmann et al, 1999, Science 285, 110-113). In brief, the structural genes of the HCV genome were replaced by heterologous sequences; the gene encoding the neomycin phosphotransferase (NPT) and the internal ribosome entry site (IRES) of the encephalomyocarditis virus (EMCV). The bicistronic construct is therefore composed of the following elements: HCV-IRES nucleotides 1-389, the NPT gene, the EMCV-IRES directing translation of downstream HCV sequences from NS2 or NS3 up to the authentic 3′ end of the genome. HCV Polyprotein harbours the cell culture adaptive mutations E1202G, T1280I, K1846T. G418-resistance is only possible with cells containing high amounts of replicon.
Cells were dissociated the day before addition of compounds and seeded in 96 well-plates at a final concentration of 77 777.77 cells·ml^−1·well^−2 in 90 μl final volume of culture medium per well and were maintained at 37° C. and 5% CO2 in a humidified atmosphere for 24 hours. 10 μl of compounds to be tested were added 24 hours after seeding. Final concentration of DMSO was 1%. Cells were incubated in the presence of compounds for 72 hours after which expression of firefly luciferase reporter gene was quantified. Briefly, culture medium was removed and cells were lysed by addition of 100 μl of lysis buffer containing 125 mM Tris Phosphate ph 7.8, 10 mM EDTA, 5 mM DTT, 50% glycerol and 5% Triton. Plates were vortexed 10 min at 1300 rpm. Cell lysat was transferred in OpaqueWhite Assay 96 well Flat Bottom plates. 100 μl of luciferin solution 1× were added to each well. Luciferin solution contained 40 mM Tris Phosphate ph 7.8, 0.2 mM EDTA, 67 mM DTT, 2.14 mM MgCl2, 5.4 mM MgSO4, 4.7×10^−4 M luciferin, 5.3×10^−4 M ATP and 2.7×10^−4 M Acetyl co enzyme A. Luminescence was immediately measured with Berthold Microlumat Plus LB 96V luminometer with an integration of 0.5 sec Inhibition was calculated using the formula:
% inhibition=1−[(RLUsample−RLUbackground)/(RLUsignal−RLUbackground)]

[3] = biological target: T2, purified HCV NS5B with a deletion of the 21 C-terminal amino acids (Hepatitis C virus genotype 1b, UniProt Q9WMX2); test: HCV NS5B RdRp enzyme assay; format: biochemical; conditions: read-out: inhibition (RdRp enzyme assay)
T2 construct: purified HCV NS5B with a deletion of the 21 C-terminal amino acids
Experimental: The assay was performed in a total volume of 20 μl containing 20 mM Tris pH 7.5, 1 mM DTT, 17 U RNasin, 50 mM NaCl, 10% DMSO, 5 mM MgCl2, 0.5 mM each of the 3 NTPs (ATP, CTP, GTP), 86 nM RNA template (341 nt from the 3′ end of HCV minus strand RNA), 50 nM of purified HCV NS5B with a deletion of the 21 C-terminal amino acids and 2 μCi [^3H]UTP (46 Ci·mmol^−1). The reaction mixture was incubated for 2 h at 25-30° C. and the radio labeled products were precipitated by the addition of 10% TCA. The radioactivity incorporated was quantified by counting in a Wallac scintillation counter. Increasing concentrations of tested compounds were added to the complete RdRp reaction mixture. After a two hour incubation period at 25-30° C., the amount of labeled product was determined as above. Two types of control reactions were done: a negative control corresponding to the complete mixture without enzyme and a positive control with enzyme but without compounds. In each experiment, test and control samples are in duplicate.
The level of activity with each compound concentration was expressed with the formulae: […]
The IC50 value was calculated as the compound concentration reducing polymerase activity by 50%.

COc1ccc(C(=O)C2=C(O)C(=O)N(c3nnc(C)s3)C2c2ccc(C(C)(C)C)cc2)cc1 (stereo not drawn) [Example 3]
EC50 [1]: 7 µM | EC50 [2]: 15 µM

Cc1ccc(C(=O)C2=C(O)C(=O)N(c3ncc(S(=O)(=O)c4ccc([N+](=O)[O-])cc4)s3)C2c2ccc(C(C)C)cc2)cc1 (stereo not drawn) [Example 10]
EC50 [1]: 2 µM | EC50 [2]: 8 µM

Cc1ccc(C(=O)C2=C(O)C(=O)N(c3ncc(S(=O)(=O)c4ccc([N+](=O)[O-])cc4)s3)C2c2ccc(C(C)(C)C)cc2)cc1 (stereo not drawn) [Example 28]
EC50 [1]: 2 µM | EC50 [2]: 4 µM | inhibition at 10 µM [3]: 85%

CC(C)(C)c1ccc(C2C(C(=O)c3ccc(Cl)cc3)=C(O)C(=O)N2c2ncc(S(=O)(=O)c3ccc([N+](=O)[O-])cc3)s2)cc1 (stereo not drawn) [Example 40]
EC50 [1]: 5 µM | EC50 [2]: 28 µM

Cc1ccc(C(=O)C2=C(O)C(=O)N(c3ncc(S(=O)(=O)c4ccc([N+](=O)[O-])cc4)s3)C2c2cccc(Cl)c2)cc1 (stereo not drawn) [Example 51]
EC50 [1]: 7 µM | EC50 [2]: 10 µM

Cc1ccc(C(=O)C2=C(O)C(=O)N(c3nnc(C)s3)C2c2ccc(C(C)C)cc2)cc1 (stereo not drawn) [Example 54]
EC50 [1]: 13 µM | EC50 [2]: 11 µM

CN(C)c1ccc(C(=O)C2=C(O)C(=O)N(c3ncc(S(=O)(=O)c4ccc([N+](=O)[O-])cc4)s3)C2c2ccc(C(C)(C)C)cc2)cc1 (stereo not drawn) [Example 55, 5-(4-tert-butyl-phenyl)-4-(4-dimethylamino-benzoyl)-3-hydroxy-1-[5-(4-nitro-benzenesulfonyl)-thiazol-2-yl]-1,5-dihydro-pyrrol-2-one]
EC50 [1]: 4 µM | EC50 [2]: 7 µM

CCc1ccc(C2C(C(=O)c3ccco3)=C(O)C(=O)N2c2ncc(S(=O)(=O)c3ccc([N+](=O)[O-])cc3)s2)cc1 (stereo not drawn) [Example 104, 5-(4-ethyl-phenyl)-4-(furan-2-carbonyl)-3-hydroxy-1-[5-(4-nitro-benzenesulfonyl)-thiazol-2-yl]-1,5-dihydro-pyrrol-2-one]
EC50 [1]: < 10 µM | EC50 [2]: < 10 µM

O=C(O)c1ccc(C2C(C(=O)c3ccco3)=C(O)C(=O)N2c2ncc(S(=O)(=O)c3ccc([N+](=O)[O-])cc3)s2)cc1 (stereo not drawn) [Example 112, 4-{3-(furan-2-carbonyl)-4-hydroxy-1-[5-(4-nitro-benzenesulfonyl)-thiazol-2-yl]-5-oxo-2,5-dihydro-1H-pyrrol-2-yl}-benzoic acid]
EC50 [1]: < 10 µM | EC50 [2]: < 10 µM

CC(C)c1ccc(C(=O)C2=C(O)C(=O)N(c3ncc(S(=O)(=O)c4ccc([N+](=O)[O-])cc4)s3)C2c2ccc(OC(F)(F)F)cc2)cc1 (stereo not drawn) [Example 125, 3-hydroxy-4-(4-isopropyl-benzoyl)-1-[5-(4-nitro-benzenesulfonyl)-thiazol-2-yl]-5-(4-trifluoromethoxy-phenyl)-1,5-dihydro-pyrrol-2-one]
EC50 [1]: < 10 µM | EC50 [2]: < 10 µM | melting point: 276 to 278 °C

Cc1nnc(N2C(=O)C(O)=C(C(=O)c3ccc(C(C)C)cc3)C2c2ccc(OC(F)(F)F)cc2)s1 (stereo not drawn) [Example 127, 3-hydroxy-4-(4-isopropyl-benzoyl)-1-(5-methyl-[1,3,4]thiadiazol-2-yl)-5-(4-trifluoromethoxy-phenyl)-1,5-dihydro-pyrrol-2-one]
EC50 [1]: < 1 µM | EC50 [2]: < 1 µM | melting point: 260 °C

Cc1nnc(N2C(=O)C(O)=C(C(=O)c3ccc(C(C)C)cc3)C2c2ccc(C(F)(F)F)cc2)s1 (stereo not drawn) [Example 128, 3-hydroxy-4-(4-isopropyl-benzoyl)-1-(5-methyl-[1,3,4]thiadiazol-2-yl)-5-(4-trifluoromethyl-phenyl)-1,5-dihydro-pyrrol-2-one]
EC50 [1]: < 1 µM | EC50 [2]: < 1 µM | melting point: 257 °C

Cc1cnc(N2C(=O)C(O)=C(C(=O)c3ccc(C(C)C)cc3)C2c2ccc(C(F)(F)F)cc2)s1 (stereo not drawn) [Example 129, 3-hydroxy-4-(4-isopropyl-benzoyl)-1-(5-methyl-thiazol-2-yl)-5-(4-trifluoromethyl-phenyl)-1,5-dihydro-pyrrol-2-one]
EC50 [1]: < 10 µM | EC50 [2]: < 10 µM

Cc1cnc(N2C(=O)C(O)=C(C(=O)c3ccc(C(C)C)cc3)C2c2ccc(OC(F)(F)F)cc2)s1 (stereo not drawn) [Example 130, 3-hydroxy-4-(4-isopropyl-benzoyl)-1-(5-methyl-thiazol-2-yl)-5-(4-trifluoromethoxy-phenyl)-1,5-dihydro-pyrrol-2-one]
EC50 [1]: < 10 µM | EC50 [2]: < 10 µM | melting point: 243 to 244 °C
